Laboratory results taken from patent US20050267016A1, “CD-10 activated prodrug compounds” (priority 2001, published 2005).
pIC50: −log10 of the molar value. Where two headings read alike, the source gives them in different places.

Tests used:
in vivo = details: female, ICR, mouse, iv, 10 umol/kg
Method: (§3) Plasma was obtained from three individual animals in each group at 5 minutes, 1, 2, 4, or 6 hr.

[1] = test system: colorectal carcinoma LS174t xenograft; details: tolerated dose 3 mg/kg, same dosing regimen; cited from earlier work
[2] = test system: human colon carcinoma (HT-29) xenograft; details: 4.0 mg/kg every 7 days for 5 doses
Source text: Healthy young male nude mice were subcutaneously injected with 5 million of HT-29 cells.

[3] = test system: HL60 cells (CD10 negative); assay: Proliferation of HL60 cells with supernatant from compound-treated CHO cells; assay type: cell-based; details: Homo sapiens
Source text: Confirmation of the data is shown when Suc-βAla-Leu-Ala-Leu-Dox was compared to Suc-Leu-Ala-Gly-Dox and the results are consistent with the fact that Suc-βAla-Leu-Ala-Leu is cleaved by CD10 transfected cells and not by the parental cell lines.

[4] = test system: CD10 transfected CHO cells, Clone #3; assay: 3H thymidine proliferation assay, CD10 transfected CHO Clone #3; assay type: cell-based, Chinese Hamster; details: Cricetulus griseus, Table 25
Method: The fully assembled coding region was sub-cloned into a mammalian expression vector, downstream of the hCMV-MIE promoter. DNA sequence analysis confirmed sequence identity with the coding sequence of human CD10 (Genbank accession number Y00811). The expression plasmid was linearized and stably transfected into CHO—S cells. CD10 expressing transfectant clones were selected under 500 ug/mL of hygromycin and screened by flow cytometry for cell-surface CD10 expression using a commercially available anti-CD10-FITC antibody.

[5] = test system: colorectal carcinoma LS174t xenograft; assay: LS174t xenograft efficacy; assay type: in vivo, nude mice; details: for Mean Day of Survival (MDS): animals whose tumors reached 1.5 g prior to Day 60; for long-term survivors: up to 60 days
Source text: There were 4 and 2 long-term survivors in the low and high dose groups, respectively, compared with 0 in the vehicle control group.

[6] = test system: CD10 transfected CHO cells (clone 8); assay: Conversion to Leu-Dox or Gly-Dox in cell supernatants, CD10 transfected CHO; assay type: cell-based, Chinese Hamster; details: Clone 8 (CD10 transfected), 10 μM, 37° C.
Method: (§1) To directly ask the question of whether the CD10 expressing cells were capable of cleaving the prodrug, supernatants from CD10 transfected or parental CHO cells treated with the compounds were collected. […] After incubation for 1, 4, and 24 hours, an aliquot of each supernatant was transferred to a 96-well plate and frozen at −20° C. Samples were subsequently thawed and analyzed by reversed phase HPLC (4.6×50 mm 21 TSK Super-ODS column) with fluorescence detection after dilution with 3 volumes of acetonitrile, removal of precipitate by centrifugation, and further dilution into 3 volumes of water. When incubated with Suc-βAla-Leu-Ala-Leu-Dox, there was no detectable metabolism to Leu-Dox observed with the parental cell line while clone 8 (CD10 transfected) generated significant levels of Leu-Dox from Suc-βAla-Leu-Ala-Leu-Dox (Table 27).

Parental CHO cells = assay: Conversion to Leu-Dox or Gly-Dox in cell supernatants, parental CHO; assay type: cell-based, Chinese Hamster; details: 10 μM, 37° C.
Method: as §1

[7] = mouse, in vivo, iv, 100 umol/kg
Method: as §3

LNCaP cell homogenate = assay: Hydrolysis by cultured human cell homogenates; assay type: biochemical
Method: In addition, 1 μM phosphoramidon, a CD10 inhibitor was included in incubations with LNCaP cell homogenate. To estimate specific activity protein content was estimated in the soluble portion of the homogenates. Results expressed as protein specific activity (FIG. 12) indicate that LNCaP cells which are known to contain CD10 show the greatest Suc-Ile-Ala-Leu-Dox hydrolyzing activity.

[8] = test system: HL-60 xenograft homogenate; assay: Hydrolysis by mouse tumor xenograft homogenates; assay type: biochemical; details: 12.5 μg/mL, up to 1 hr, 37° C.
Method: (§2) Soluble protein was measured and results are reported as protein specific activity. The results, illustrated in FIG. 13, indicate the LNCaP cells contain the highest Suc-Ile-Ala-Leu-Dox hydrolyzing activity while HL-60 cells show no Suc-Ile-Ala-Leu-Dox hydrolyzing activity.

[9] = test system: LNCaP xenograft homogenate; assay: Hydrolysis by mouse tumor xenograft homogenates; assay type: biochemical; details: 12.5 μg/mL, up to 1 hr, 37° C.
Method: as §2

## COc1cccc2c1C(=O)c1c(O)c3c(c(O)c1C2=O)C[C@@](O)(C(=O)CO)C[C@@H]3O[C@H]1C[C@H](N)[C@H](O)[C@H](C)O1 [Doxorubicin, reference compound]
In vivo
  AUC(0-t): 3.3 µM·h
[1]
  efficacy in LS174t model: historically ineffective
[2]
  % TGI (Day 14, mean): 9.3%
  % TGI (Day 25, median): 30.9%
  Calculated Mean Day of Survival: 30.0 ± 3.7 days
  Extension of Mean Day of Survival over controls: 16.7%
  Mean Tumor Weight at Day 14: 665 ± 103 mg
  Median Tumor Weight at Day 25: 1046 mg
  Number of Long Term Survivors: 0/10
[2]; listed as doxorubicin
  Calculated Mean Day of Survival: 30 days
[3]; HL-60, 24 h, HL60 fresh compound, 24 hours
  pIC50: 6.79
[3]; HL-60, 24 h, supernatant of Parental CHO, collected 24 hours after exposure
  pIC50: 6.55
[3]; HL-60, supernatant of Clone 8 (CD10 Pos.)
  pIC50: 6.31
[3]; HL-60, supernatant of Clone 10 (CD10 Neg.)
  pIC50: 6.38
[3]; HL-60, supernatant of Clone DB4 (CD10 Pos.)
  pIC50: 6.31
[4]
  pIC50: 6.26

## CC[C@H](C)[C@H](NC(=O)CCNC(=O)CCC(=O)O)C(=O)N[C@@H](C)C(=O)N[C@@H](CC(C)C)C(=O)N[C@H]1C[C@H](O[C@H]2C[C@](O)(C(=O)CO)Cc3c(O)c4c(c(O)c32)C(=O)c2c(OC)cccc2C4=O)O[C@@H](C)[C@H]1O [Suc-βAla-Ile-Ala-Leu-Dox]
[5]; 53 mg/kg Q5DX5
  Mean Day of Survival (MDS): 29.7 days
[5]; 53 mg/kg i.v. Q5DX5, groups of ten
  long-term survivors: 4
[5]; 68 mg/kg Q5DX5
  Mean Day of Survival (MDS): 23.4 days
[5]; 68 mg/kg i.v. Q5DX5, groups of ten
  long-term survivors: 2

## COc1cccc2c1C(=O)c1c(O)c3c(c(O)c1C2=O)C[C@@](O)(C(=O)CO)C[C@@H]3O[C@H]1C[C@H](NC(=O)[C@H](CC(C)C)NC(=O)[C@H](C)NC(=O)[C@H](CC(C)C)NC(=O)CCNC(=O)CCC(=O)O)[C@H](O)[C@H](C)O1 [Suc-βAla-Leu-Ala-Leu-Dox]
[6]
  Conversion rate to Leu-Dox or Gly-Dox: 0.30 mM/h
  Percent Conversion/Hour to Leu-Dox or Gly-Dox: 3.00 Percent Conversion/Hour
Parental CHO cells
  Conversion rate to Leu-Dox or Gly-Dox: 0 mM/h
  Percent Conversion/Hour to Leu-Dox or Gly-Dox: 0 Percent Conversion/Hour
[7]
  Plasma AUC0-6 hr of AL-Dox or AG-Dox*: 3.2 µM·h
  Plasma AUC0-6 hr of L-Dox or G-Dox*: 40 µM·h

## CC[C@H](C)[C@H](NC(=O)CCC(=O)O)C(=O)N[C@@H](C)C(=O)N[C@@H](CC(C)C)C(=O)N[C@H]1C[C@H](O[C@H]2C[C@](O)(C(=O)CO)Cc3c(O)c4c(c(O)c32)C(=O)c2c(OC)cccc2C4=O)O[C@@H](C)[C@H]1O [Suc-Ile-Ala-Leu-Dox]
LNCaP cell homogenate; LNCaP cell homogenate with 1 μM phosphoramidon
  hydrolyzing activity (protein specific activity): inhibited by phosphoramidon
LNCaP cell homogenate; LNCaP cell homogenate, 12.5 μg/mL, up to 1 hr, 37° C., pH 7.2
  hydrolyzing activity (protein specific activity): greatest
[8]
  hydrolyzing activity (protein specific activity): no
[9]
  hydrolyzing activity (protein specific activity): highest
